# Measured values as given in patent publication US12208092B2, “Compositions and methods for administering paltusotine to patients with hepatic impairment” (CRINETICS PHARMACEUTICALS, INC., priority 2023, dated 2025).
# Experiment: Phase 1 hepatic impairment study, safety (TEAEs) after single oral 20 mg tablet
# [1] = mild hepatic impairment (N = 8)
# [2] = moderate hepatic impairment (N = 8)
# [3] = normal hepatic function (N = 14)
# Experimental: The secondary objective of the study was to assess the safety and tolerability of a single dose of paltusotine in subjects with varying degrees of hepatic impairment.
# Safety and tolerability were assessed by the following endpoints: reported adverse events (AEs), clinical laboratory test results (hematology, coagulation, serum chemistry, and urinalysis), vital sign measurements, and 12-lead electrocardiogram results
# All 36 subjects who were enrolled in the study received all planned single doses of paltusotine 20 mg (1×20 mg tablet) and were included in the safety and PK analysis populations.
smiles,measurement,setting,value
"N#Cc1cccc(-c2ccc3ncc(-c4cc(F)cc(F)c4)c(N4CCC(N)CC4)c3c2)c1O [paltusotine, 3-[4-(4-amino-1-piperidyl)-3-(3,5-difluorophenyl)-6-quinolyl]-2-hydroxybenzonitrile]",discontinuation due to a TEAE,all 36 subjects,No subjects discontinued
same,safety and tolerability,hepatic impairment and normal subjects,safe and generally well tolerated
same,"Any SAEs, number of occurrences",[1],1
same,"Any TEAE, number of occurrences",[1],3
same,"Related TEAE Abdominal discomfort, subjects n (%)",[1],0
same,"Related TEAE Diarrhea, number of occurrences",[1],1
same,"Related TEAE Diarrhea, subjects n (%)",[1],1 (12.5%)
same,"Related TEAE Epigastric discomfort, subjects n (%)",[1],0
same,"Related TEAE Fatigue, subjects n (%)",[1],0
same,"Related TEAE Haematuria, number of occurrences",[1],1
same,"Related TEAE Haematuria, subjects n (%)",[1],1 (12.5%)
same,"Related TEAE Headache, subjects n (%)",[1],0
same,"Related TEAE Neutropenia, subjects n (%)",[1],0
same,"Related TEAE Pain, subjects n (%)",[1],0
same,"Related TEAE Paraesthesia, subjects n (%)",[1],0
same,"SAEs Not related to study drug (strongest relationship), subjects n (%)",[1],1 (12.5%)
same,"SAEs Not related to study drug, number of occurrences",[1],1
same,"SAEs Related to study drug (strongest relationship), subjects",[1],0
same,"Subjects reporting any SAEs, subjects n (%)",[1],1 (12.5%)
same,"Subjects reporting any TEAE, subjects n (%)",[1],2 (25.0%)
same,"TEAE Abdominal discomfort, subjects n (%)",[1],0
same,"TEAE COVID-19, subjects n (%)",[1],0
same,"TEAE Death, number of occurrences",[1],1
same,"TEAE Diarrhea, number of occurrences",[1],1
same,"TEAE Diarrhea, subjects n (%)",[1],1 (12.5%)
same,"TEAE Epigastric discomfort, subjects n (%)",[1],0
same,"TEAE Fatigue, subjects n (%)",[1],0
same,"TEAE Haematuria, number of occurrences",[1],1
same,"TEAE Haematuria, subjects n (%)",[1],1 (12.5%)
same,"TEAE Headache, subjects n (%)",[1],0
same,"TEAE Neutropenia, subjects n (%)",[1],0
same,"TEAE Pain, subjects n (%)",[1],0
same,"TEAE Paraesthesia, subjects n (%)",[1],0
same,"TEAE SOC Blood and lymphatic system disorders, subjects n (%)",[1],0
same,"TEAE SOC Gastrointestinal disorders, number of occurrences",[1],1
same,"TEAE SOC Gastrointestinal disorders, subjects n (%)",[1],1 (12.5%)
same,"TEAE SOC General disorders and administration site conditions, number of occurrences",[1],1
same,"TEAE SOC General disorders and administration site conditions, subjects n (%)",[1],1 (12.5%)
same,"TEAE SOC Infections and infestations, subjects n (%)",[1],0
same,"TEAE SOC Nervous system disorders, subjects n (%)",[1],0
same,"TEAE SOC Renal and urinary disorders, number of occurrences",[1],1
same,"TEAE SOC Renal and urinary disorders, subjects n (%)",[1],1 (12.5%)
same,"TEAEs Not Related to study drug (strongest relationship), subjects n (%)",[1],0
same,"TEAEs Related to study drug (strongest relationship), subjects n (%)",[1],2 (25.0%)
same,"TEAEs Related to study drug, number of occurrences",[1],2
same,"TEAEs by maximum severity: Mild, number of occurrences",[1],2
same,"TEAEs by maximum severity: Mild, subjects n (%)",[1],1 (12.5%)
same,"TEAEs by maximum severity: Moderate, subjects n (%)",[1],0
same,"TEAEs by maximum severity: Severe, number of occurrences",[1],1
same,"TEAEs by maximum severity: Severe, subjects n (%)",[1],1 (12.5%)
same,Total number of SAEs reported,[1],1
same,Total number of TEAEs reported,[1],3
same,"Any TEAE, number of occurrences",[2],4
same,"Related TEAE Abdominal discomfort, subjects n (%)",[2],0
same,"Related TEAE Diarrhea, number of occurrences",[2],1
same,"Related TEAE Diarrhea, subjects n (%)",[2],1 (12.5%)
same,"Related TEAE Epigastric discomfort, subjects n (%)",[2],0
same,"Related TEAE Fatigue, number of occurrences",[2],1
same,"Related TEAE Fatigue, subjects n (%)",[2],1 (12.5%)
same,"Related TEAE Haematuria, subjects n (%)",[2],0
same,"Related TEAE Headache, number of occurrences",[2],1
same,"Related TEAE Headache, subjects n (%)",[2],1 (12.5%)
same,"Related TEAE Neutropenia, subjects n (%)",[2],0
same,"Related TEAE Pain, number of occurrences",[2],1
same,"Related TEAE Pain, subjects n (%)",[2],1 (12.5%)
same,"Related TEAE Paraesthesia, subjects n (%)",[2],0
same,"SAEs Not related to study drug (strongest relationship), subjects n (%)",[2],0
same,"SAEs Related to study drug (strongest relationship), subjects",[2],0
same,"Subjects reporting any SAEs, subjects n (%)",[2],0
same,"Subjects reporting any TEAE, subjects n (%)",[2],2 (25.0%)
same,"TEAE Abdominal discomfort, subjects n (%)",[2],0
same,"TEAE COVID-19, subjects n (%)",[2],0
same,"TEAE Death, subjects n (%)",[2],0
same,"TEAE Diarrhea, number of occurrences",[2],1
same,"TEAE Diarrhea, subjects n (%)",[2],1 (12.5%)
same,"TEAE Epigastric discomfort, subjects n (%)",[2],0
same,"TEAE Fatigue, number of occurrences",[2],1
same,"TEAE Fatigue, subjects n (%)",[2],1 (12.5%)
same,"TEAE Haematuria, subjects n (%)",[2],0
same,"TEAE Headache, number of occurrences",[2],1
same,"TEAE Headache, subjects n (%)",[2],1 (12.5%)
same,"TEAE Neutropenia, subjects n (%)",[2],0
same,"TEAE Pain, number of occurrences",[2],1
same,"TEAE Pain, subjects n (%)",[2],1 (12.5%)
same,"TEAE Paraesthesia, subjects n (%)",[2],0
same,"TEAE SOC Blood and lymphatic system disorders, subjects n (%)",[2],0
same,"TEAE SOC Gastrointestinal disorders, number of occurrences",[2],1
same,"TEAE SOC Gastrointestinal disorders, subjects n (%)",[2],1 (12.5%)
same,"TEAE SOC General disorders and administration site conditions, number of occurrences",[2],2
same,"TEAE SOC General disorders and administration site conditions, subjects n (%)",[2],1 (12.5%)
same,"TEAE SOC Infections and infestations, subjects n (%)",[2],0
same,"TEAE SOC Nervous system disorders, number of occurrences",[2],1
same,"TEAE SOC Nervous system disorders, subjects n (%)",[2],1 (12.5%)
same,"TEAE SOC Renal and urinary disorders, subjects n (%)",[2],0
same,"TEAEs Not Related to study drug (strongest relationship), subjects n (%)",[2],0
same,"TEAEs Related to study drug (strongest relationship), subjects n (%)",[2],2 (25.0%)
same,"TEAEs Related to study drug, number of occurrences",[2],4
same,"TEAEs by maximum severity: Mild, number of occurrences",[2],3
same,"TEAEs by maximum severity: Mild, subjects n (%)",[2],1 (12.5%)
same,"TEAEs by maximum severity: Moderate, number of occurrences",[2],1
same,"TEAEs by maximum severity: Moderate, subjects n (%)",[2],1 (12.5%)
same,"TEAEs by maximum severity: Severe, subjects n (%)",[2],0
same,Total number of SAEs reported,[2],0
same,Total number of TEAEs reported,[2],4
same,"Any TEAE, number of occurrences",[3],6
same,"Related TEAE Abdominal discomfort, number of occurrences",[3],1
same,"Related TEAE Abdominal discomfort, subjects n (%)",[3],1 (7.1%)
same,"Related TEAE Diarrhea, number of occurrences",[3],2
same,"Related TEAE Diarrhea, subjects n (%)",[3],2 (14.3%)
same,"Related TEAE Epigastric discomfort, number of occurrences",[3],1
same,"Related TEAE Epigastric discomfort, subjects n (%)",[3],1 (7.1%)
same,"Related TEAE Fatigue, subjects n (%)",[3],0
same,"Related TEAE Haematuria, subjects n (%)",[3],0
same,"Related TEAE Headache, subjects n (%)",[3],0
same,"Related TEAE Neutropenia, subjects n (%)",[3],0
same,"Related TEAE Pain, subjects n (%)",[3],0
same,"Related TEAE Paraesthesia, number of occurrences",[3],1
same,"Related TEAE Paraesthesia, subjects n (%)",[3],1 (7.1%)
same,"SAEs Not related to study drug (strongest relationship), subjects n (%)",[3],0
same,"SAEs Related to study drug (strongest relationship), subjects",[3],0
same,"Subjects reporting any SAEs, subjects n (%)",[3],0
same,"Subjects reporting any TEAE, subjects n (%)",[3],4 (28.6%)
same,"TEAE Abdominal discomfort, number of occurrences",[3],1
same,"TEAE Abdominal discomfort, subjects n (%)",[3],1 (7.1%)
same,"TEAE COVID-19, subjects n (%)",[3],0
same,"TEAE Death, subjects n (%)",[3],0
same,"TEAE Diarrhea, number of occurrences",[3],3
same,"TEAE Diarrhea, subjects n (%)",[3],3 (21.4%)
same,"TEAE Epigastric discomfort, number of occurrences",[3],1
same,"TEAE Epigastric discomfort, subjects n (%)",[3],1 (7.1%)
same,"TEAE Fatigue, subjects n (%)",[3],0
same,"TEAE Haematuria, subjects n (%)",[3],0
same,"TEAE Headache, subjects n (%)",[3],0
same,"TEAE Neutropenia, subjects n (%)",[3],0
same,"TEAE Pain, subjects n (%)",[3],0
same,"TEAE Paraesthesia, number of occurrences",[3],1
same,"TEAE Paraesthesia, subjects n (%)",[3],1 (7.1%)
same,"TEAE SOC Blood and lymphatic system disorders, subjects n (%)",[3],0
